Kd data for one sequence are collected here from publication PMC4670726, “Systematic discovery of linear binding motifs targeting an ancient protein interaction surface on MAP kinases” (Molecular Systems Biology, 2015).

In test [1] the target is T1, ERK2 (Homo sapiens, UniProt P28482).
T1 construct: hexa-histidine; made in house; host or cells: E. coli (Rosetta pLysS)
Description: Fluorescence polarization (FP) competitive protein-peptide binding assay, ERK2. The following applies: FP competition titration of unlabeled synthetic peptide against 50 nM fluorescently labeled pepRSK1, MAPK at ~60–80% complex formation, 384-well, triplicates, average FP signal fitted; limit of quantitation ~100 μM. Here is the method: (§1) In addition to confirming binding in the MAPK‐docking groove, the dissociation constant (Kd) of unlabeled test peptides could also be calculated.
(§2) Dashes indicate cases where the curves could not be fitted (the Kd is above the limit of quantitation of this assay, approximately ~100 μM). Peptides are grouped in two clusters, the first being the strong JNK1 binders (frequently with little or no ERK2/p38α‐binding ability). The second group (below the magenta line) contains peptides with strong ERK2‐ and p38α‐binding capacity (but often little or no affinity toward JNK1). […] Gab3+ is the ortholog of a peptide from Gab1 which was tested as positive in the dot‐blot experiments. The two Gab3 motifs are related neither by structure nor by evolutionary origin. […]
(§3) For fluorescence polarization (FP)‐based binding affinity measurements, known MAPK‐docking groove‐binding peptides were N‐terminally labeled with carboxyfluorescein or carboxytetramethylrhodamine (for ERK2, pepRSK1: […]; for p38α, pepMK2: […] or pepMEF2A: […]; for JNK1, pep JIP3: […]). […] Subsequently, increasing amounts of chemically synthesized test peptides were added, and the FP signal was measured with a Synergy H4 (BioTek Instruments) plate reader in 384‐well plates. The Ki for each unlabeled peptide was determined by fitting the data to a competition binding equation. […]
For orientation: Fluorescence polarisation rises when a labelled molecule tumbles more slowly, as on binding a larger partner.

Test [2] addresses T2, JNK1 (Homo sapiens, UniProt P45983).
T2 construct: hexa-histidine; made in house; host or cells: E. coli (Rosetta pLysS)
Description: Fluorescence polarization (FP) competitive protein-peptide binding assay, JNK1. The following applies: FP competition titration of unlabeled synthetic peptide against 50 nM fluorescently labeled pep JIP3, MAPK at ~60–80% complex formation, 384-well, triplicates, average FP signal fitted; limit of quantitation ~100 μM. As for the experimental part: as §1, §2, §3

Test [3] concerns the target T3, p38α (Homo sapiens, UniProt Q16539).
T3 construct: hexa-histidine; made in house; host or cells: E. coli (Rosetta pLysS)
Put plainly: Fluorescence polarization (FP) competitive protein-peptide binding assay, p38α. To be noted: FP competition titration of unlabeled synthetic peptide against 50 nM fluorescently labeled pepMK2 or pepMEF2A, MAPK at ~60–80% complex formation, 384-well, triplicates, average FP signal fitted; limit of quantitation ~100 μM. Here is the method: as §1, §2, §3

Ends that are not written are not given here.

T1 sequence (P28482 whole entry): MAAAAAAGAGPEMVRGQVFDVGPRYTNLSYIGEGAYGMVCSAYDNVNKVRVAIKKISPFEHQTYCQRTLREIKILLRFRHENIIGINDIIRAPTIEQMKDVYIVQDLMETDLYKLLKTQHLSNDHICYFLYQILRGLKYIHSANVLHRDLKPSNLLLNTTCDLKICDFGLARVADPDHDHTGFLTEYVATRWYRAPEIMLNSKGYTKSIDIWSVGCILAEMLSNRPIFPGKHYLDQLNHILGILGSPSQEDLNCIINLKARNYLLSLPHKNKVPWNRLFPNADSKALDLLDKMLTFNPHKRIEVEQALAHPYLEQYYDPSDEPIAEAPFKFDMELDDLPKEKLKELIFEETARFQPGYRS
T3 sequence (Q16539 whole entry): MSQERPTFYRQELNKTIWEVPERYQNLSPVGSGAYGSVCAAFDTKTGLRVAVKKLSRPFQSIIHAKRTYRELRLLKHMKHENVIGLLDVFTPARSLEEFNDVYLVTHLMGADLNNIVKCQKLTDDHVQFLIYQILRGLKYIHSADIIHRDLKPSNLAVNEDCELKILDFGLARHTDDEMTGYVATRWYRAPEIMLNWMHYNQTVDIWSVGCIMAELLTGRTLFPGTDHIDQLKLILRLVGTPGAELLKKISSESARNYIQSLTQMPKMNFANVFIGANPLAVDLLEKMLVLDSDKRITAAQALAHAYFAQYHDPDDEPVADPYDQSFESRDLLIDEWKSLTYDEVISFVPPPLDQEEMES
T2 sequence (P45983 whole entry): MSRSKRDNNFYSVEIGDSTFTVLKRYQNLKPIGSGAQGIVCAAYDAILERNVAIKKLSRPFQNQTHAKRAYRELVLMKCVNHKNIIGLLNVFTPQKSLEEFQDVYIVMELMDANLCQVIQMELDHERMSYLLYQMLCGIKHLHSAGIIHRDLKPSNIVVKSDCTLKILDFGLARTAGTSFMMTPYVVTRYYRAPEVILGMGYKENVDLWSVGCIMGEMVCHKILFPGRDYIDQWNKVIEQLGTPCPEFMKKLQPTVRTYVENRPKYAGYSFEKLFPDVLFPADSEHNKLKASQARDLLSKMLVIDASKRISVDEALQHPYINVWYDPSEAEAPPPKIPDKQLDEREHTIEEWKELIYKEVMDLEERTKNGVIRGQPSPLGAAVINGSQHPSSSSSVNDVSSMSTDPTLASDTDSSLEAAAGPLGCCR

By Kd is commonly meant the concentration at which binding is half-saturated. For KPQRKSRPPPLDLRNLS [GAB3+], the values for the Kd in test [1], in test [2] and in test [3] were 0.7 µM, 13.2 µM and 2 µM, respectively.
